Laboratory results as given in patent US10231939B2, “Hydroxytyrosol and oleuropein compositions for induction of DNA damage, cell death and LSD1 inhibition” (priority 2012, dated 2019).

Assays:
Assay in all cases: Cell proliferation (Cell Titer-Blue Assay)
[1] = system: SNU-16 cells; type: cell-based; details: Homo sapiens
Description: (§1) Human chronic myelogenous leukemia K562 cells (ATCC No. CCL-243), human large B-lymphocyte non-Hodgkin's lymphoma LCL cells, human leukemic monocyte lymphoma U937 cells (ATCC No. CRL-1593.2), human prostate adenocarcinoma PC3 (ATCC No. CRL-1435) and human gastric carcinoma SNU-16 cells (ATCC No. CRL-5974) were maintained in complete-Royal Park Memorial Institute (RPMI) 1640 medium supplemented with 20 mmol/L HEPES (pH 7.4; GIBCO-Invitrogen, Carlsbad, Calif., USA), 10% (v/v) fetal bovine serum (FBS), 2 mmol/L L-glutamine (GIBCO-Invitrogen), and 80 units gentamicin (GIBCO-Invitrogen). Cells were cultured in suspension in a humidified atmosphere of 5% (v/v) CO2 at 37° C. and were maintained in exponential growth phase. For maintenance, cells were passaged twice per week and seeded at ratios 1:10. Cell proliferation was determined using the Cell Titer-Blue Assay kit (Promega, Madison, Wis., USA). Cells were seeded at 10,000 cells per well in black flat bottom 96-well plates (Nalge Nunc, Penfield, N.Y., USA) and treated with serial doses of hydroxytyrosol (0-3200 μM) and oleuropein (0-12800 μM) for 24, 48 and 120 hours at 37° C., 5% (v/v) CO2. Following incubation with the test samples, Cell-Titer Blue reagent (20 μl per 100 μL) was added to each well and mixed gently for 5 sec prior to 4 hr incubation at 37° C. in a humidified atmosphere of 5% CO2. Fluorescence intensity (λex=550 nm and λem=615 nm) was determined using a Perkin Elmer Victor3 multilabel microplate counter (PerkinElmer, Waltham, Mass., USA). Data were expressed as % relative cell viability compared to untreated cells after correction of subtracting the media control fluorescence reading.

[2] = system: MyLa CD8+ cells; type: cell-based, human; details: for EC50: Homo sapiens
Protocol: (§2) Human cutaneous T cell lymphoma MyLa cells expressing CD4^+ (ECACC No. 95051032) and CD8^+ (ECACC No. 95051033) were obtained from the European Culture Collection of Cell Cultures (ECACC; CAMR, Salisbury, UK) and maintained in complete-RPMI 1640 medium supplemented with 2 mM glutamine (GIBCO-Invitrogen), 10% (v/v) human AB serum (Lonza, Basel, Switzerland) and 100 u/mL IL-2 (Sigma-Aldrich, USA) or 100 u/mL IL-2 (Sigma-Aldrich, USA) with 100 u/mL IL-4 (R&D Systems, MN, USA) respectively. Cells were cultured in suspension in a humidified atmosphere of 5% (v/v) CO2 at 37° C. and were maintained in exponential growth phase. For maintenance, cells were passaged three times per week and seeded at ratios 1:2. Liver hepatocellular carcinoma Hep G2 cells (ATCC No. […]) were maintained in RPMI-1640 supplemented with 10% fetal bovine serum (FBS), and were cultured in 75 cm^2 T-flask and maintained at 37° C. in 5% CO2 humidified incubator. Cell proliferation was determined using the Cell Titer-Blue Assay kit (Promega, Madison, Wis., USA). Cells were seeded at 10,000 cells per well in black flat bottom 96-well plates (Nalge Nunc, Penfield, N.Y., USA) and treated with serial doses of hydroxytyrosol (0-3200 μM) and oleuropein (0-12800 μM) for 24, 48 and 120 hours at 37° C., 5% (v/v) CO2. Following incubation with the test samples, Cell-Titer Blue reagent (20 μl per 100 μL) was added to each well and mixed gently for 5 sec prior to 4 hr incubation at 37° C. in a humidified atmosphere of 5% CO2. Fluorescence intensity (λex=550 nm and λem=615 nm) was determined using a Perkin Elmer Victor3 multilabel microplate counter (PerkinElmer, Waltham, Mass., USA). Data were expressed as % relative cell viability compared to untreated cells after correction of subtracting the media control fluorescence reading.

[3] = system: Hep G2 cells; type: cell-based, human; details: for EC50: Homo sapiens, HepG2
Protocol: as §2

[4] = system: MyLa CD4+ cells; type: cell-based, human; details: for EC50: Homo sapiens
Protocol: as §2

[5] = system: R100 cells; type: cell-based, human; details: for EC50: Homo sapiens
Protocol: as §1, with “Human acute T lymphoblast leukemic CEM-CCRF” for “Human chronic myelogenous leukemia K562”, “cells (ATTC NO. CCL-119), obtained from the ATCC” for “cells (ATCC No. CCL-243), human large B-lymphocyte non-Hodgkin's lymphoma LCL cells, human leukemic monocyte lymphoma U937 cells (ATCC No. CRL-1593.2), human prostate adenocarcinoma PC3 (ATCC No. CRL-1435) and human gastric carcinoma SNU-16 cells (ATCC No. CRL-5974)”, “in a Modified Eagle's Medium (α-MEM)” for “in complete-Royal Park Memorial Institute (RPMI) 1640 medium”, “with 2” for “with 20”, “(v/v) FBS,” for “(v/v) fetal bovine serum (FBS),”, “(GIBCO-Invitrogen). Similarly, CEM-CCRF—P-glycoprotein (PGP)—over expressing, vinblastine derivative—R100 cells, expressing multi-drug resistance (MDR) were grown in a-MEM supplemented with 2 mmol/L HEPES (pH 7.4), 10% (v/v) FBS, 2 mmol/L L-glutamine, 80 units gentamicin and 100 ng/ml vinblastine. R100 cells were cultured in a-MEM/FBS/gentamicin media without vinblastine for 7 days prior to use in experiments.” for “(GIBCO-Invitrogen).”

[6] = system: CEM-CCRF cells; type: cell-based, human; details: for EC50: Homo sapiens
Protocol: as §1, with “Human acute T lymphoblast leukemic CEM-CCRF” for “Human chronic myelogenous leukemia K562”, “cells (ATTC NO. CCL-119), obtained from the ATCC” for “cells (ATCC No. CCL-243), human large B-lymphocyte non-Hodgkin's lymphoma LCL cells, human leukemic monocyte lymphoma U937 cells (ATCC No. CRL-1593.2), human prostate adenocarcinoma PC3 (ATCC No. CRL-1435) and human gastric carcinoma SNU-16 cells (ATCC No. CRL-5974)”, “in a Modified Eagle's Medium (α-MEM)” for “in complete-Royal Park Memorial Institute (RPMI) 1640 medium”, “with 2” for “with 20”, “(v/v) FBS,” for “(v/v) fetal bovine serum (FBS),”, “(GIBCO-Invitrogen). Similarly, CEM-CCRF—P-glycoprotein (PGP)—over expressing, vinblastine derivative—R100 cells, expressing multi-drug resistance (MDR) were grown in a-MEM supplemented with 2 mmol/L HEPES (pH 7.4), 10% (v/v) FBS, 2 mmol/L L-glutamine, 80 units gentamicin and 100 ng/ml vinblastine. R100 cells were cultured in a-MEM/FBS/gentamicin media without vinblastine for 7 days prior to use in experiments.” for “(GIBCO-Invitrogen).”

EC50 ([1]; SNU-16, 24 hr)	EC50 ([1]; SNU-16, 48 hr)	EC50 ([6]; 24 hr)	Structure (SMILES)	EC10 (concentration required to reduce the cell viability of the population to 10%) ([2]; 120 hr)	EC50 ([2]; 24 hr)	EC50 ([2]; 48 hr)	EC50 ([2]; 120 hr)	EC10 (concentration required to reduce the cell viability of the population to 10%) ([3]; Hep-G2, 120 hr)	EC50 ([3]; Hep-G2, 24 hr)	EC50 ([3]; Hep-G2, 48 hr)	EC50 ([3]; Hep-G2, 120 hr)	EC10 (concentration required to reduce the cell viability of the population to 10%) ([4]; 120 hr)	EC50 ([4]; 24 hr)	EC50 ([4]; 48 hr)	EC50 ([4]; 120 hr)	EC50 ([5]; R100, 24 hr)	EC50 ([5]; R100, 48 hr)	EC50 ([5]; R100, 120 hr)	EC10 (concentration required to reduce the cell viability of the population to 10%) ([5]; R100, 120 hr)	EC10 (concentration required to reduce the cell viability of the population to 10%) ([6]; 120 hr)	also measured
2820 µM	800 µM	437 µM	C/C=C1/[C@H](O[C@@H]2O[C@H](CO)[C@@H](O)[C@H](O)[C@H]2O)OC=C(C(=O)OC)[C@H]1CC(=O)OCCc1ccc(O)c(O)c1 [OL, oleuropein]	3020 µM	647 µM	3600 µM	270 µM	2600 µM	703 µM	2400 µM	1300 µM	4800 µM	647 µM	3800 µM	3400 µM	320 µM	1000 µM	250 µM	530 µM	700 µM	EC50 ([6]; 48 hr): 1800 µM; EC50 ([6]; 120 hr): 325 µM
1100 µM	80 µM	121 µM	OCCc1ccc(O)c(O)c1 [HT, 4-(2-hydroxyethyl)-1,2-benzenediol]	650 µM	460 µM	450 µM	230 µM	360 µM	427 µM	470 µM	205 µM	760 µM	1010 µM	870 µM	400 µM	190 µM	100 µM	40 µM	86 µM	80 µM	EC50 ([6]; 48 hr): 100 µM; EC50 ([6]; 120 hr): 42 µM
